We go through 15 compounds from patent publication US8871786B2, “Azaindazole amide compounds as CCR1 receptor antagonists” (Boehringer Ingelheim International GmbH, priority 2010, dated 2014).

This assay addresses T1, CCR1 (Homo sapiens, UniProt P32246).
T1 sequence (P32246 1-355): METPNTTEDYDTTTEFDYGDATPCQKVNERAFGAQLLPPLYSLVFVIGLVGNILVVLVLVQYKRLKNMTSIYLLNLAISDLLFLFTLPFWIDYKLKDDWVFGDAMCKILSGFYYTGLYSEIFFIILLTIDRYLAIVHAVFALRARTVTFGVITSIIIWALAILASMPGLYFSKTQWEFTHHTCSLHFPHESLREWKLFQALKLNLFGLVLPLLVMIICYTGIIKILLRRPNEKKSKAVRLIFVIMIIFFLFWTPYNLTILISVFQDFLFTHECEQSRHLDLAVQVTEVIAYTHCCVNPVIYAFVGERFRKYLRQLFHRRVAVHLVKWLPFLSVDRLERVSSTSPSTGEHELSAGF
Kind of assay: Calcium flux assay in CCR1 transfected cells (block of CCR1/MIP-1α interaction). Conditions: cells stably expressing recombinant CCR1 and G-alpha-16; MIP-1 alpha at EC80; mean. In kind it is cell-based. On the procedure: Compounds are assessed for the ability to block the interaction of CCR1 and MIP-1α in a functional cellular assay measuring calcium flux in CCR1 transfected cells.
Non-adherent cells purchased from Chemicon Corporation (HTS005C), stably expressing recombinant CCR1 and G-alpha-16 are grown in RPMI 1640 medium (Mediatech 10-080-CM) supplemented with 10% FBS, 0.4 mg/mL Geneticin and penicillin/streptomycin. On the day of the assay, the cells are loaded with Calcium 4 dye (Molecular Devices R7448) with Probenecid (Invitrogen P346400) at 8E5 cells/mL for 1 hour at room temperature. After 1 hour, they are seeded in a 384-well tissue culture-treated plate at a density of 20,000 cells/well. Appropriately diluted test compound is added to the well to achieve a top concentration of 3,000 nM (diluted 4-fold with 10 doses total). The final concentration of DMSO is 1%. The buffer is HBSS (Invitrogen 14025) with 20 mM HEPES at pH 7.4. The cells incubate 30 minutes at 37 C and then 30 minutes at room temperature. The plates are transferred to the HAMAMATSU FDSS6000 where MIP-1 alpha in 1% BSA is added at the EC80 final concentration. All plates must be read within 4 hours of the start of dye-loading. Wells+/−MIP-1 alpha containing diluted DMSO instead of compound serve as the controls. Data are analyzed using Activity Base software.
(In general: A change in cytosolic calcium serves as a functional read-out for many receptors and channels.)
Turning to `Cc1cc(C)c(S(C)(=O)=O)cc1NC(=O)c1cncc2c1cnn2-c1ccc(F)cc1`, the IC50 was determined as 2.1 nM.

In the case of `Cc1cc(C)c(NC(=O)c2cncc3c2cnn3-c2ccc(F)cc2)c(C)c1`, the half-maximal inhibitory concentration (IC50) was 19 nM.

On to `Cc1cc(-c2nnco2)ccc1NC(=O)c1cncc2c1cnn2-c1ccc(F)cc1`, for which the IC50 was 30 nM.

Take `Cc1ccc(NC(=O)c2cncc3c2cnn3-c2ccc(F)cc2)c(Cl)n1`: the 50% inhibitory concentration (IC50) came out at 82 nM.

In the case of `COC(=O)c1ccc(NC(=O)c2cncc3c2cnn3-c2ccc(F)cc2)c(C)c1`, the IC50 was found to be 24 nM.

Turning to `Cc1nc(Cl)ccc1NC(=O)c1cncc2c1cnn2-c1ccc(F)cc1`, the IC50 amounted to 8.8 nM.

For the compound `Cn1nccc1-c1cccc(NC(=O)c2cncc3c2cnn3-c2ccc(F)cc2)c1`, the IC50 worked out at 73 nM.

Turning to `Cc1noc(C)c1NC(=O)c1cncc2c1cnn2-c1ccc(F)cc1`, the IC50 came out at 6.9 nM.

Consider `Cc1onc(-c2ccccc2)c1NC(=O)c1cncc2c1cnn2-c1ccc(F)cc1`, for which the half-inhibitory concentration (IC50) stood at 14 nM.

As for `Cn1ncc(-c2ccccc2)c1NC(=O)c1cncc2c1cnn2-c1ccc(F)cc1`, the concentration for half-maximal inhibition (IC50) worked out at 84 nM.

With `Cc1cccc(Cl)c1NC(=O)c1cncc2c1cnn2-c1ccc(F)cc1`, the IC50 came out at 36 nM.

In the case of `CNC(=O)c1ccc(NC(=O)c2cncc3c2cnn3-c2ccc(F)cc2)c(C)c1`, the IC50 is 93 nM.

For the compound `Cc1cc(C(=O)N(C)C)ccc1NC(=O)c1cncc2c1cnn2-c1ccc(F)cc1`, the IC50 came out at 66 nM.

Take `Cc1ccnc(C)c1NC(=O)c1cncc2c1cnn2-c1ccc(F)cc1`: the half-maximal inhibitory concentration (IC50) is 21 nM.

On to `Cc1cc(Cl)cc(C)c1NC(=O)c1cncc2c1cnn2-c1ccc(F)cc1`, for which the IC50 was found to be 2.8 nM.

As a reminder, the IC50 is the concentration that gives 50% inhibition.
